Assays:
[1] = Cell Titer-fluor cell activity assay in HCV-1b replicon cells (CC50); type: cell-based
Protocol: (§1) The EC50 and CC50 values of anti-HCV compounds were determined by HCV genotype 1a (HCV-1a) and 1B (HCV-1b) stable transfer replication (replicon) cells. The source of genotype 1a replicon is H77 clones containing K1691R, K2040R and S2204I adaptive mutations. The source of genotype 1b replicon is Con1 clones containing E1202G, T1280I and K1846T adaptive mutations.
(§2) HCV Replicon Cell Lines: HCV-1a and HCV-1b Cells
(§3) The compound powder was dissolved in 100% DMSO. Then the compound was diluted 5 times with 6 points, and added into the cell plate with Echo liquid handler. Ensure the final concentration of DMSO was 0.5%. Each compound was tested in double holes. Maximum initial concentration was 100, 10 or 1 nM, 5 times dilution, 6 points.
(§4) b) Cell Culture (HCV-1a or HCV-1b Replicon Cell):
(§5) 1) absorbing the culture supernatant of the cell culture and washing the cells with 10 mL PBS.
(§6) 2) adding preheated pancreatin to the washed cell culture flasks, rotating culture bottle to make the bottom of the culture bottle uniformly covered by pancreatin, then placed into 37° C., 5% CO2 incubator to digest.
(§7) 3) suspending cells in each T150 culture flask with 10-15 mL culture medium, absorbing 0.1 mL liquid and diluting 2 times by trypan blue solution as counted.
(§8) 4) diluting cells to 8×10^4/mL with the culture medium, adding the diluted cells into the compound-containing 96-well plate (Greiner, Cat.#655090) (100 μL/well, 8000 cells/well) with automatic liquid separator (Thermo Scientific). Then place into a 37° C., 5% CO2 incubator for 3 days. Cell control well: no compound, only containing 0.5% DMSO.
5) adding chemiluminescent substrate Cell Titer-fluor to the cell well, after incubation for 30 minutes, detecting the signal by chemiluminescence detection system Envison (Ex at 405 nm and read at 515 nm). The effect of the compounds on the activity of HCV replicon cells was analyzed according to the luminescence data, which was used to calculate the CC50 values.
(§9) The EC50 or CC50 values were obtained by nonlinear fitting analysis on inhibition percentage (inh %) data with GraphPad Prism software.

[2] = system: HCV genotype 1b (HCV-1b) replicon cells; assay: HCV genotype 1b replicon luciferase assay (EC50); type: cell-based, hepatitis C virus genotype 1b (Con1 clone); settings: 3 days, luciferase (Bright-Glo)
Protocol: as §1
(§10) HCV 1a (HCV-1a) and 1b (HCV-1b) gene subtype replicon system contains the related HCV gene subtype non structural protein gene, G418 resistance gene NEO and luciferase gene, which results in that HCV related protein and luciferase can be stably expressed in cells. By detecting the level of expression of luciferase gene, the level of HCV replication can be determined. Therefore, the system is used as a model for screening the activity of anti-HCV compound in vitro.
as §2, §3, §4, §5, §6, §7, §8
(§11) 6) then adding luciferase luminescence substrate Bright-Glo, after incubation for 5 minutes, detecting the luciferase activity by chemical luminescence detection system Envison (wavelength>700 nm); analyzing the anti-HCV inhibitory activity of the compounds according to luciferase data, which was used to calculate EC50 values.
as §9

[3] = system: HCV genotype 1a (HCV-1a) replicon cells; assay: HCV genotype 1a replicon luciferase assay (EC50); type: cell-based, hepatitis C virus genotype 1a (H77 clone); settings: 3 days, luciferase (Bright-Glo)
Protocol: as §1, §10, §2, §3, §4, §5, §6, §7, §8, §11, §9

SMILES | CC50 at 3 days [1] | EC50 ([2]; Hepatitis C virus, 72 h) | EC50 [3] | EC50 ([3]; Hepatitis C virus, 72 h) | EC50 [2]
COC(=O)N[C@H](C(=O)N1CCC[C@H]1c1ncc(-c2ccc(-c3ccc(-c4cnc([C@H]5C6CCC(C6)[C@@H]5C(=O)NC(C)c5cccnc5)[nH]4)cc3)cc2)[nH]1)C(C)C (single isomer, unassigned) [AA_204_A] | > 1 nM | 0.001 to 0.1 nM | 0.101 to 1 nM |  | 
COC(=O)N[C@H](C(=O)N1CCC[C@H]1c1ncc(-c2ccc(-c3ccc(-c4cnc(C5=C(C(=O)N(NC(=O)OC)C(C)C)CCC5)[nH]4)cc3)cc2)[nH]1)C(C)C [AA_007] | > 100 nM | 1 to 10 nM |  |  | 
COC(=O)N[C@H](C(=O)N1CCC[C@H]1c1ncc(-c2ccc(-c3ccc(-c4cnc(C5CCCC5C(=O)N(NC(=O)OC)C(C)C)[nH]4)cc3)cc2)[nH]1)C(C)C (stereo partly drawn) [AA_008] | > 100 nM | 1 to 10 nM |  |  | 
COC(=O)N[C@H](C(=O)N1CCC[C@H]1c1ncc(-c2ccc(-c3ccc(-c4cnc(C5=C(C(=O)N(NC(=O)OC)C(C)C)CCCC5)[nH]4)cc3)cc2)[nH]1)C(C)C [AA_014] | > 100 nM | 1 to 10 nM |  |  | 
COC(=O)N[C@H](C(=O)N1CCC[C@H]1c1ncc(-c2ccc(-c3ccc(-c4cnc(C5CCC[C@H]5C(=O)NC(C)C)[nH]4)cc3)cc2)[nH]1)C(C)C (stereo partly drawn) [AA_028] | > 100 nM | 1 to 10 nM |  |  | 
COC(=O)N[C@H](C(=O)N1CCC[C@H]1c1ncc(-c2ccc(-c3ccc4cc(-c5cnc(C6CCCC[C@H]6C(=O)N(NC(=O)OC)C(C)C)[nH]5)ccc4c3)cc2)[nH]1)C(C)C (stereo partly drawn) [AA_071] | > 10 nM | 1 to 10 nM |  |  | 
COC(=O)N[C@H](C(=O)N1[C@H](c2ncc(-c3ccc(-c4ccc5cc(-c6cnc(C7CCCC[C@H]7C(=O)N(NC(=O)OC)C(C)C)[nH]6)ccc5c4)cc3)[nH]2)COC1(C)C)C(C)C (stereo partly drawn) [AA_072] | > 10 nM | 10 to 100 nM |  |  | 
COC(=O)N[C@H](C(=O)N1CC2(C[C@H]1c1ncc(-c3ccc(-c4ccc5cc(-c6cnc(C7CCCC[C@H]7C(=O)N(NC(=O)OC)C(C)C)[nH]6)ccc5c4)cc3)[nH]1)OCCO2)C(C)C (stereo partly drawn) [AA_073] | > 10 nM | 1 to 10 nM |  |  | 
COC(=O)NN(C(=O)[C@H]1CCCCC1c1ncc(-c2ccc(-c3ccc4cc(-c5cnc(C6CCCC[C@H]6C(=O)N(NC(=O)OC)C(C)C)[nH]5)ccc4c3)cc2)[nH]1)C(C)C (stereo partly drawn) [AA_074] | > 10 nM | 10 to 100 nM |  |  | 
COC(=O)NN(C(=O)[C@@H]1CCCCC1c1ncc(-c2ccc3cc(-c4ccc(-c5cnc(C6CCCC[C@@H]6C(=O)N(CC(=O)NC6CC6)C(C)C)[nH]5)cc4)ccc3c2)[nH]1)C(C)C (stereo partly drawn) [AA_075] | > 10 nM | 10 to 100 nM |  |  | 
COC(=O)NC(C(=O)N1CCCC1c1ncc(-c2ccc3cc(-c4cnc(C5CCCC[C@H]5C(=O)N(NC(=O)OC)C(C)C)[nH]4)ccc3c2)[nH]1)C1CCOC1 (stereo partly drawn) [AA_078] | > 10 nM | 10 to 100 nM |  |  | 
COC(=O)N[C@H](C(=O)N1CCC[C@H]1c1ncc(-c2ccc(-c3ccc(-c4cnc([C@@H]5CCCC[C@H]5C(=O)N(NC(=O)OC)C(C)C)[nH]4)cc3)cc2)[nH]1)C(C)C [AA_091_A] | > 10 nM | 1 to 10 nM |  |  | 
COC(=O)N[C@H](C(=O)N1CCC[C@H]1c1[nH]c(-c2ccc(-c3ccc4cc(-c5cnc(C6CCCC[C@@H]6C(=O)N(NC(=O)OC)C(C)C)[nH]5)ccc4c3)cc2)c2c1CCC2)C(C)C (stereo partly drawn) [AA_094] | > 10 nM | 10 to 100 nM |  |  | 
COC(=O)NC(C(=O)C1CCCCC1c1ncc(-c2ccc(-c3ccc(-c4[nH]c([C@@H]5CCCN5C(=O)[C@@H](NC(=O)OC)C(C)C)c5c4CCC5)cc3)cc2)[nH]1)C(C)C (stereo partly drawn) [AA_100] | > 10 nM | 10 to 100 nM |  |  | 
COC(=O)N[C@H](C(=O)N1CCC[C@H]1c1ncc(-c2ccc(-c3ccc(-c4cnc(C5CCCC[C@H]5C(=O)N(NC(=O)OC)C(C)C)[nH]4)cn3)cc2)[nH]1)C(C)C (stereo partly drawn) [AA_108] | > 10 nM | 1 to 10 nM |  |  | 
COC(=O)N[C@H](C(=O)N1CCC[C@H]1c1ncc(-c2ccc(-c3ccc(-c4cnc(C5CCCC[C@@H]5C(=O)N(NC(=O)OC)C(C)C)[nH]4)c(F)c3)cc2)[nH]1)C(C)C (stereo partly drawn) [AA_118] | > 10 nM | 1 to 10 nM |  |  | 
COC(=O)N[C@H](C(=O)N1CCC[C@H]1c1ncc(-c2ccc(-c3ccc(-c4cnc([C@@H]5[C@H]6CC[C@H](C6)[C@H]5C(=O)NN5CCCC5=O)[nH]4)cc3)cc2)[nH]1)C(C)C [AA_294_ENDOA2] |  | 0.001 to 0.1 nM |  | 10 to 100 nM | 
COC(=O)N[C@H](C(=O)N1CCC[C@H]1c1ncc(-c2ccc(-c3ccc(-c4cnc([C@@H]5[C@H]6CC[C@H](C6)[C@H]5C(=O)NN5CC[C@@H](C)C5=O)[nH]4)cc3)cc2)[nH]1)C(C)C [AA_295_ENDOA2_A] |  | 0.101 to 1 nM |  | 10 to 100 nM | 
COC(=O)N[C@H](C(=O)N1CCC[C@H]1c1ncc(-c2ccc(-c3ccc(-c4cnc([C@@H]5[C@H]6CC[C@H](C6)[C@H]5C(=O)NN5CC[C@H](C)C5=O)[nH]4)cc3)cc2)[nH]1)C(C)C [AA_295_ENDOA2_B] |  | 0.101 to 1 nM |  | 10 to 100 nM | 
COC(=O)N[C@H](C(=O)N1CCC[C@H]1c1ncc(-c2ccc(-c3ccc(-c4cnc([C@@H]5[C@H]6CC[C@H](C6)[C@H]5C(=O)N[C@H](C(=O)NCc5cccnc5)C(C)C)[nH]4)cc3)cc2)[nH]1)C(C)C [AA_296_ENDOA2] |  | 0.101 to 1 nM |  | 1 to 10 nM | 
CCOC(=O)[C@@H](NC(=O)[C@@H]1[C@@H]2CC[C@@H](C2)[C@H]1c1ncc(-c2ccc(-c3ccc(-c4cnc([C@@H]5CCCN5C(=O)[C@@H](NC(=O)OC)C(C)C)[nH]4)cc3)cc2)[nH]1)C(C)C [AA_297_ENDOA2] |  | 0.101 to 1 nM |  | 10 to 100 nM | 
COC(=O)N[C@H](C(=O)N1CCC[C@H]1c1cc(Cl)c(-c2ccc(-c3ccc(-c4cnc([C@@H]5CCCN5C(=O)[C@@H](NC(=O)OC)[C@@H](C)OC)[nH]4)cc3)cc2)[nH]1)[C@@H](C)OC [AG_095] |  | 0.001 to 0.1 nM |  | 0.101 to 1 nM | 
COC(=O)N[C@H](C(=O)N1CCC[C@H]1c1ncc(-c2ccc(-c3ccc(-c4ccc(C5CCCC5C(=O)NCc5cccnc5)[nH]4)cc3)cc2)[nH]1)[C@@H](C)OC (stereo partly drawn) [AG_096] |  | 0.001 to 0.1 nM |  | 10 to 100 nM | 
COC(=O)N[C@H](C(=O)N1CCC[C@H]1c1ccc(-c2ccc(-c3ccc(-c4cnc([C@@H]5CCCN5C(=O)C5(NC(=O)OC)CC5)[nH]4)cc3)cc2)[nH]1)C(C)C [AG_097] |  |  | 10 to 100 nM |  | 0.001 to 0.1 nM
COC(=O)N[C@@H](COC(C)(C)C)C(=O)N1CCC[C@H]1c1ncc(-c2ccc(-c3ccc(-c4ccc([C@@H]5CCCN5C(=O)[C@@H](NC(=O)OC)C(C)C)[nH]4)cc3)cc2)[nH]1 [AG_098] |  | 0.001 to 0.1 nM |  | 1 to 10 nM | 
COC(=O)N[C@H](C(=O)N1CCC[C@H]1c1ccc(-c2ccc(-c3ccc(-c4cnc([C@@H]5CCCN5C(=O)[C@@H](NC(=O)OC)[C@@H](C)O)[nH]4)cc3)cc2)[nH]1)C(C)C [AG_099] |  | 0.101 to 1 nM |  | 1 to 10 nM | 
COC(=O)N[C@H](C(=O)N1CCC[C@H]1c1ncc(-c2ccc(-c3ccc(-c4[nH]c([C@@H]5CCCN5C(=O)[C@@H](NC(=O)OC)C(C)C)c5c4OCC5)cc3)cc2)[nH]1)C(C)C [AG_114_A] |  |  | 10 to 100 nM |  | 0.101 to 1 nM
COC(=O)NC(C(=O)N1CCCC1c1[nH]c(-c2ccc(-c3ccc(-c4cnc(C5CCCC[C@@H]5C(=O)N(NC(=O)OC)C(C)C)[nH]4)cc3)cc2)c2c1CCC2)C1CCOCC1 (stereo partly drawn) [AL_003] | > 10 nM | 10 to 100 nM |  |  | 

Reference: patent publication US10160771B2, “Hepatitis C virus inhibitors and uses thereof in preparation of drugs” (priority 2014, dated 2018)
